PA-7 (MIC) and EC-1 (MIC) data for 12 molecules are collected here from patent US8846933B2, “N-link hydroxamic acid derivatives useful as antibacterial agents” (Pfizer Inc., priority 2009, dated 2014).

SMILES strings stand for the structures.

Assay [1] relates to Pseudomonas aeruginosa UI-18: Wild-type (PA-7). As to the kind of experiment: MIC determination (CLSI), strain PA-7. Format: cell-based. To be noted: strain PA-7; unit assumed. The essentials:
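MIC determined by broth dilution per CLSI M7-A7 guidelines with M100-S18 interpretive standards. Test organism: wild-type Pseudomonas aeruginosa UI-18, designated PA-7.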

Assay [2] relates to Escherichia coli EC-1: VOGEL, mouse virulent. As to the kind of experiment: MIC determination (CLSI), strain EC-1. The note with it: strain EC-1; unit assumed. Format: cell-based. In short, it runs like this:
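The mouse-virulent VOGEL isolate of E. coli, EC-1, served as test organism. Minimum inhibitory concentration was measured by CLSI dilution methodology (M7-A7; M100-S18 standards).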

The molecule `Cc1cc(-c2ccn(CCC(C)(C(=O)NO)S(C)(=O)=O)c(=O)c2)ccc1OCCCO` (stereo not drawn) [Example 248, N-hydroxy-4-{4-[4-(3-hydroxypropoxy)-3-methylphenyl]-2-oxopyridin-1(2H)-yl}-2-methyl-2-(methylsulfonyl)butanamide] displayed a PA-7 (MIC) in assay [1] of 4 µg/mL. This molecule came in with an EC-1 (MIC) in assay [2] of 2 µg/mL.

With `COc1cc(-c2ccn(CCC(C)(C(=O)NO)S(C)(=O)=O)c(=O)c2)ccc1OCCCO` (stereo not drawn) [Example 249, N-hydroxy-4-{4-[4-(3-hydroxypropoxy)-3-methoxyphenyl]-2-oxopyridin-1(2H)-yl}-2-methyl-2-(methylsulfonyl)butanamide], the PA-7 (MIC) in assay [1] was 64 µg/mL. Besides, the EC-1 (MIC) in assay [2] is greater than 64 µg/mL.

Regarding `CC(CCn1ccc(-c2ccc(OCCCO)cc2F)cc1=O)(C(=O)NO)S(C)(=O)=O` (stereo not drawn) [Example 250, 4-{4-[2-fluoro-4-(3-hydroxypropoxy)phenyl]-2-oxopyridin-1(2H)-yl}-N-hydroxy-2-methyl-2-(methylsulfonyl)butanamide], the PA-7 (MIC) in assay [1] turned out to be 4 µg/mL. Also, the EC-1 (MIC) in assay [2] came to 2 µg/mL.

`CC(CCn1ccc(-c2ccc(OCCCO)cc2Cl)cc1=O)(C(=O)NO)S(C)(=O)=O` (stereo not drawn) [Example 251, 4-{4-[2-chloro-4-(3-hydroxypropoxy)phenyl]-2-oxopyridin-1(2H)-yl}-N-hydroxy-2-methyl-2-(methylsulfonyl)butanamide] displayed a PA-7 (MIC) in assay [1] of 4 µg/mL. The molecule further displayed an EC-1 (MIC) in assay [2] of 2 µg/mL.

`Cc1cc(OCCCO)ccc1-c1ccn(CCC(C)(C(=O)NO)S(C)(=O)=O)c(=O)c1` (stereo not drawn) [Example 252, N-hydroxy-4-{4-[4-(3-hydroxypropoxy)-2-methylphenyl]-2-oxopyridin-1(2H)-yl}-2-methyl-2-(methylsulfonyl)butanamide]: in assay [1], the PA-7 (MIC) turned out to be 16 µg/mL. The same molecule yielded an EC-1 (MIC) in assay [2] of 16 µg/mL.

Turning to `COc1cc(OCCCO)ccc1-c1ccn(CCC(C)(C(=O)NO)S(C)(=O)=O)c(=O)c1` (stereo not drawn) [Example 253, N-hydroxy-4-{4-[4-(3-hydroxypropoxy)-2-methoxyphenyl]-2-oxopyridin-1(2H)-yl}-2-methyl-2-(methylsulfonyl)butanamide], the PA-7 (MIC) in assay [1] was greater than 64 µg/mL. The molecule also registered an EC-1 (MIC) in assay [2] of 16 µg/mL.

In the case of `CC(CCn1ccc(-c2ccc3ncccc3c2)cc1=O)(C(=O)NO)S(C)(=O)=O` (stereo not drawn) [Example 254], in assay [1], the PA-7 (MIC) stood at 4 µg/mL. The molecule also came in with an EC-1 (MIC) in assay [2] of 4 µg/mL.

`CC(C)(O)Cc1ccc(-c2ccn(CCC(C)(C(=O)NO)S(C)(=O)=O)c(=O)c2)cc1` (stereo not drawn) [Example 255, N-hydroxy-4-{4-[4-(2-hydroxy-2-methylpropyl)phenyl]-2-oxopyridin-1(2H)-yl}-2-methyl-2-(methylsulfonyl)butanamide] returned a PA-7 (MIC) in assay [1] of 8 µg/mL. Besides, the EC-1 (MIC) in assay [2] was determined as 2 µg/mL.

Consider `Cc1cc2cc(-c3ccn(CCC(C)(C(=O)NO)S(C)(=O)=O)c(=O)c3)ccc2[nH]1` (stereo not drawn) [Example 256, N-hydroxy-2-methyl-4-[4-(2-methyl-1H-indol-5-yl)-2-oxopyridin-1(2H)-yl]-2-(methylsulfonyl)butanamide], for which the PA-7 (MIC) in assay [1] was found to be 4 µg/mL. In assay [2], this molecule showed an EC-1 (MIC) of 1 µg/mL.

In assay [1], `Cc1cccc(-c2ccn(CCC(C)(C(=O)NO)S(C)(=O)=O)c(=O)c2)c1C` (stereo not drawn) [Example 257, 4-[4-(2,3-dimethylphenyl)-2-oxopyridin-1(2H)-yl]-N-hydroxy-2-methyl-2-(methylsulfonyl)butanamide] registered a PA-7 (MIC) of 2 µg/mL. Further, the EC-1 (MIC) in assay [2] came to 4 µg/mL.

For the molecule `CC(CCn1ccc(-c2ccc3cc(O)ccc3c2)cc1=O)(C(=O)NO)S(C)(=O)=O` (stereo not drawn) [Example 258, N-hydroxy-4-[4-(6-hydroxy-2-naphthyl)-2-oxopyridin-1(2H)-yl]-2-methyl-2-(methylsulfonyl)butanamide], the PA-7 (MIC) in assay [1] stood at 2 µg/mL. In addition, the EC-1 (MIC) in assay [2] was determined as 1 µg/mL.

For `CC(CCn1ccc(-c2ccc3cnccc3c2)cc1=O)(C(=O)NO)S(C)(=O)=O` (stereo not drawn) [Example 260, N-hydroxy-4-(4-isoquinolin-6-yl-2-oxopyridin-1(2H)-yl)-2-methyl-2-(methylsulfonyl)butanamide], the PA-7 (MIC) in assay [1] was 4 µg/mL. The EC-1 (MIC) in assay [2] was found to be 4 µg/mL.
